Molecules are shown by their SMILES. Some results are limits rather than exact numbers.

What is called EC50 is the concentration that produces a half-maximal response. The IC50 is the concentration at which inhibition is half-maximal.

The target in test [1] is interaction between PD-1 and PD-L1 expressed on cell surfaces (Homo sapiens (Human), UniProt Q9NZQ7). Nature of the test: Jurkat reporter gene cellular assay (Jurkat/NF-κB-luc/PD1 cells cocultured with Raji-PD-L1 cells, OKT-3 stimulation). It is filed as cell-based. Particulars: NF-κB-luc reporter activation fold, 6 hrs; read-out: Cell Activity EC50. As for the experimental part: B. Jurkat Reporter Gene Cellular Assay
The effect of compounds of the examples of the present invention and positive compounds on the interaction between PD-1 and PD-L1 expressed on cell surfaces, and the related influence on T cell functions, were determined by a Jurkat reporter gene cellular assay.
Briefly, the reporter gene plasmid of NF-κB-luc and the plasmid of human PD-1 were transfected into Jurkat cells to establish a stably transfected cell line capable of stably expressing both PD-1 and NF-κB-Luc reporter genes; the expression level of PD-1 on the cell surface was confirmed by flow cytometry: and the expression of the reporter gene was confirmed via the response of the reporter gene stimulated by OKT-3 and Raiji cells.
In addition, the plasmid of human PD-L1 was transfected into Raji cells to obtain a cell line capable of stably expressing PD-L1. Jurkat/NF-κB-luc/PD1 cells and Raji-PD-L1 cells were then cocultured and stimulated with OKT-3. On this basis, the compounds were added, and the enhancement of the signal pathway of T cell activation by the inhibitory effect of the compounds on the interaction between PD-1 and PD-L1 was evaluated by readings of reporter gene responses. The specific experimental process was as follows:
2. 20 μL of Raji-PD-L1 cell suspension was added to each well with 5*10^4 cells for each well, and was incubated in an incubator for 20 min;
3. 20 μL of Jurkat/NF-κb-luc/PD-1 cell suspension was added to each well with 5*10^4 cells for each well, and well mixed, and 6 hrs later, Bright-glo (Promega, E2620) was applied and plates were read on Envision;
4. the reading of each well treated with the compound was compared with the reading of each well treated with DMSO to obtain the activation fold of the compound; and
5. EC50 values of compounds and positive compounds of the examples of the present invention were determined by non-linear regression analysis of activation folds at different compound concentrations.

In test [2] the target is interaction between PD-1 and PD-L1 (Homo sapiens (Human), UniProt Q9NZQ7). Put plainly: PD1-PDL1 HTRF binding activity test (Cisbio PD-1/PD-L1 binding assay kit). Particulars: read-out: PD1-PDL1 HTRF Binding Activity IC50. As for the experimental part: A. PD1-PDL1 HTRF Binding Activity Test
The effect of compounds and positive compounds of the examples of the present invention on the interaction between PD-1 and PD-L1 was determined by the PD-1/PD-L1 binding assay kit from Cisbio (#64ICP01PEG or 64ICP01PEH). The detailed experimental process was as follows:
1. Pre-diluted compound solution, 4 μL of Tag1-PD-L1 and 4 μL of Tag2-PD1 were added to each well of a 384-well plate;
3. After incubated for 2 hrs at room temperature or overnight at 4° C., plates were read on Envision of Pelkin Elmer; and readings at 665 nm and 620 nm were recorded, and the ratio of the two readings was taken as a reading for each well;
4. The reading of each well after compound treatment was compared with the reading of DMSO treated wells to obtain the percent inhibition of the compound; and
5. IC50 values of compounds and positive compounds of the examples of the present invention were determined by non-linear regression analysis of percent inhibition at different compound concentrations.

Chain of interaction between PD-1 and PD-L1 (Q9NZQ7 19-238): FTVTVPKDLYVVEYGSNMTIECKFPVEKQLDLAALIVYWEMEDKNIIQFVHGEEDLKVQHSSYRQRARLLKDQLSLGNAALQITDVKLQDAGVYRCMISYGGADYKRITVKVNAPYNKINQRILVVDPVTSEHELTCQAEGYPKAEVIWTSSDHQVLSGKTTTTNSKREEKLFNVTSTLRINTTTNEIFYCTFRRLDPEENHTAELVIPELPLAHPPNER
Chain of interaction between PD-1 and PD-L1 expressed on cell surfaces (Q9NZQ7 19-290): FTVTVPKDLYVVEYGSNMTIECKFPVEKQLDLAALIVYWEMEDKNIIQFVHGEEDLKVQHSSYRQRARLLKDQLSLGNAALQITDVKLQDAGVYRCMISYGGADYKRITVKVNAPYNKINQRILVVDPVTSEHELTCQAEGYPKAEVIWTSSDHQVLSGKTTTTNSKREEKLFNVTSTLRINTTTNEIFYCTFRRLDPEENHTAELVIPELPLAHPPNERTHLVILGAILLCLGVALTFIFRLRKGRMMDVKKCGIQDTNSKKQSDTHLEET

For `COC(=O)CNCc1cnc(C(=O)Nc2cccc(-c3cccc(NC(=O)c4cc(C)c(CNCC(=O)OC)cn4)c3C)c2C)cc1C` [Example 24, dimethyl 2,2′-((((((2,2′-dimethyl-[1,1′-biphenyl]-3,3′-diyl)bis(azanediyl))bis(carbonyl))bis(4-methylpyridine-6,3-diyl))bis (methylene))bis(azanediyl))diacetate], in test [1], the EC50 worked out at 1050 nM. Besides, in test [2], the IC50 was 3.2 nM.

For the compound `Cc1cc(C(=O)Nc2cccc(-c3cccc(NC(=O)c4cc(C)c(CNCC(=O)O)cn4)c3C)c2C)ncc1CNCC(=O)O` [Example 25], the EC50 in test [1] is 124 nM. Further, the IC50 in test [2] was 0.37 nM.

For `COC(=O)[C@H]1CCCCN1Cc1cnc(C(=O)Nc2cccc(-c3cccc(NC(=O)c4cc(C)c(CN5CCCC[C@@H]5C(=O)OC)cn4)c3C)c2C)cc1C` [Example 28, dimethyl 1,1′-(((((2,2′-dimethyl-[1,1′-biphenyl]-3,3′-diyl)bis (azanediyl))bis(carbonyl))bis (4-methylpyridine-6,3-diyl))bis(methylene))(2R,2′R)-bis (piperidine-2-carboxylate)], the EC50 in test [1] was above 10000 nM. The IC50 in test [2] stood at 9.55 nM.

Regarding `Cc1cc(C(=O)Nc2cccc(-c3cccc(NC(=O)c4cc(C)c(CN5CCCC[C@@H]5C(=O)O)cn4)c3C)c2C)ncc1CN1CCCC[C@@H]1C(=O)O` [Example 29, (2R,2′R)-1,1′-(((((2,2′-dimethyl-[1,1′-biphenyl]-3,3′-diyl)bis (azanediyl))bis(carbonyl))bis (4-methylpyridine-6,3-diyl))bis(methylene))bis(piperidine-2-carboxylic acid)], the EC50 in test [1] was determined as 1460 nM. In test [2], the IC50 stood at 0.36 nM.

Regarding `Cc1cc(C(=O)Nc2cccc(-c3cccc(NC(=O)c4cc(C)c(CN[C@H](CCO)C(=O)O)cn4)c3C)c2C)ncc1CN[C@H](CCO)C(=O)O` [Example 30, (2R,2′R)-2,2′-((((((2,2′-dimethyl-[1,1′-biphenyl]-3,3′-diyl)bis(azanediyl))bis(carbonyl))bis(4-methylpyridine-6,3-diyl))bis(methylene))bis(azanediyl)) bis(4-hydroxybutanoic acid)], the EC50 in test [1] was found to be 448 nM. Also, the IC50 in test [2] was determined as 1.24 nM.

Regarding `COc1cc(C(=O)Nc2cccc(-c3cccc(NC(=O)c4cc(OC)c(CN5CCOCC5)cn4)c3C)c2C)ncc1CN1CCOCC1` [Example 31, N,N′-(2,2′-dimethyl-[1,1′-biphenyl]-3,3′-diyl)bis(4-methoxy-5-(morpholinomethyl)picolinamide)], the concentration giving a half-maximal response (EC50) in test [1] is 2080 nM. For the same compound, in test [2], the IC50 came to 1 nM.

As for `CNCc1cnc(C(=O)Nc2cccc(-c3cccc(NC(=O)c4cc(OC)c(CNC)cn4)c3C)c2C)cc1OC` [Example 32, N,N'-(2,2′-dimethyl-[1,1′-biphenyl]-3,3′-diyl)bis(4-methoxy-5-((methylamino)methyl)picolinamide)], in test [1], the EC50 stood at 53 nM. Also, the concentration for half-maximal inhibition (IC50) in test [2] was found to be 0.27 nM.

Consider `COc1cc(C(=O)Nc2cccc(-c3cccc(NC(=O)c4cc(OC)c(CNC[C@H](O)CO)cn4)c3C)c2C)ncc1CNC[C@H](O)CO` [Example 33, N,N'-(2,2′-dimethyl-[1,1′-biphenyl]-3,3′-diyl)(5((((S)-2,3-dihydroxypropyl)amino)methyl)-4-methoxypicolinamide)], for which the concentration for a half-maximal effect (EC50) in test [1] stood at 109 nM. In test [2], the IC50 was found to be 0.65 nM.

Take `COCCNCc1cnc(C(=O)Nc2cccc(-c3cccc(NC(=O)c4cc(OC)c(CNCCOC)cn4)c3C)c2C)cc1OC` [Example 34, N,N'-(2,2′-dimethyl-[1,1′-biphenyl]-3,3′-diyl)bis(4-methoxy-5-(((2-methoxyethyl)amino)methyl)picolinamide)]: the EC50 in test [1] was found to be 111 nM. The IC50 in test [2] is 0.21 nM.

Turning to `COc1cc(C(=O)Nc2cccc(-c3cccc(NC(=O)c4cc(OC)c(CNCCOC(F)F)cn4)c3C)c2C)ncc1CNCCOC(F)F` [Example 35, N,N'-(2,2′-dimethyl-[1,1′-biphenyl]-3,3′-diyl)bis(5-(((2-(difluoromethoxy)ethyl)amino)methyl)-4-methoxypicolinamide)], in test [1], the EC50 worked out at 257 nM. Further, the IC50 in test [2] was 1.11 nM.

For `COCCN(C)Cc1cnc(C(=O)Nc2cccc(-c3cccc(NC(=O)c4cc(OC)c(CN(C)CCOC)cn4)c3C)c2C)cc1OC` [Example 36, N,N'-(2,2′-dimethyl-[1,1′-biphenyl]-3,3′-diyl)bis(4-methoxy-5-(((2-methoxyethyl)(methyl)amino)methyl)picolinamide)], the EC50 in test [1] came to 456 nM. In test [2], the IC50 amounted to 0.74 nM.

For `COc1cc(C(=O)Nc2cccc(-c3cccc(NC(=O)c4cc(OC)c(CN(C)CCO)cn4)c3C)c2C)ncc1CN(C)CCO` [Example 37, N,N'-(2,2′-dimethyl-[1,1′-biphenyl]-3,3′-diyl)bis(5-(((2-hydroxyethyl) (methyl)amino)methyl)-4-methoxypicolinamide)], in test [1], the EC50 came out at 118 nM. Also, the IC50 in test [2] was determined as 0.04 nM.

For the compound `COc1cc(C(=O)Nc2cccc(-c3cccc(NC(=O)c4cc(OC)c(CNCCOC(C)=O)cn4)c3C)c2C)ncc1CNCCOC(C)=O` [Example 38, ((((((2,2′-dimethyl-[1,1′-biphenyl]-3,3′-diyl)bis(azanediyl))bis (carbonyl))bis(4-methoxypyridine-6,3-diyl))bis(methylene))bis (azanediyl))bis(ethane-2,1-diyl) diacetate], in test [1], the EC50 amounted to 7000 nM. For the same compound, the IC50 in test [2] turned out to be 0.83 nM.

Take `COc1cc(C(=O)Nc2cccc(-c3cccc(NC(=O)c4cc(OC)c(CNCCNC(C)=O)cn4)c3C)c2C)ncc1CNCCNC(C)=O` [Example 39, N,N′-(2,2′-dimethyl-[1,1′-biphenyl]-3,3′-diyl)bis(5-(((2-acetamidoethyl)amino)methyl)-4-methoxypicolinamide)]: the concentration giving a half-maximal response (EC50) in test [1] was determined as 225 nM. In addition, the IC50 in test [2] is 0.86 nM.

`COc1cc(C(=O)Nc2cccc(-c3cccc(NC(=O)c4cc(OC)c(CNCC(C)(C)O)cn4)c3C)c2C)ncc1CNCC(C)(C)O` [Example 40, N,N'-(2,2′-dimethyl-[1,1′-biphenyl]-3,3′-diyl)bis(5-(((2-hydroxy-2-methylpropyl)amino)methyl)-4-methoxypicolinamide)]: the EC50 in test [1] turned out to be 172 nM. In addition, in test [2], the IC50 worked out at 0.29 nM.

With `COc1cc(C(=O)Nc2cccc(-c3cccc(NC(=O)c4cc(OC)c(CNCC5(O)CC5)cn4)c3C)c2C)ncc1CNCC1(O)CC1` [Example 41, N,N'-(2,2′-dimethyl-[1,1′-biphenyl]-3,3′-diyl)bis(5-((((1-hydroxycyclopropyl)methyl)amino)methyl)-4-methoxypicolinamide)], in test [1], the EC50 is 74 nM. Also, the IC50 in test [2] was 0.032 nM.

As for `COc1cc(C(=O)Nc2cccc(-c3cccc(NC(=O)c4cc(OC)c(CN[C@H](C)CO)cn4)c3C)c2C)ncc1CN[C@H](C)CO` [Example 42, N,N'-(2,2′-dimethyl-[1,1′-biphenyl]-3,3′-diyl)bis(5-((((R)-1-hydroxypropan-2-yl)amino)methyl)-4-methoxypicolinamide)], the half-maximal effective concentration (EC50) in test [1] worked out at 60 nM. Besides, in test [2], the IC50 is 0.28 nM.

Consider `COc1cc(C(=O)Nc2cccc(-c3cccc(NC(=O)c4cc(OC)c(CN[C@@H](C)CO)cn4)c3C)c2C)ncc1CN[C@@H](C)CO` [Example 43, N,N'-(2,2′-dimethyl-[1,1′-biphenyl]-3,3′-diyl)bis(5-((((S)-1-hydroxypropan-2-yl)amino)methyl)-4-methoxypicolinamide)], for which, in test [1], the EC50 turned out to be 11 nM. Moreover, the IC50 in test [2] is 0.29 nM.

Consider `COc1cc(C(=O)Nc2cccc(-c3cccc(NC(=O)c4cc(OC)c(CN[C@H]5CCC[C@@H]5O)cn4)c3C)c2C)ncc1CN[C@H]1CCC[C@@H]1O` [Example 44, N,N'-(2,2′-dimethyl-[1,1′-biphenyl]-3,3′-diyl)bis(5-((((1S,2S)-2-hydroxycyclopentyl)amino)methyl)-4-methoxypicolinamide)], for which the EC50 in test [1] worked out at 55 nM. The concentration for half-maximal inhibition (IC50) in test [2] is 0.24 nM.

`COc1cc(C(=O)Nc2cccc(-c3cccc(NC(=O)c4cc(OC)c(CN5CC(O)C5)cn4)c3C)c2C)ncc1CN1CC(O)C1` [Example 45, N,N'-(2,2′-dimethyl-[1,1′-biphenyl]-3,3′-diyl)bis(5-((3-hydroxyazetidin-l-yl)methyl)-4-methoxypicolinamide)]: the EC50 in test [1] turned out to be 41 nM. For the same compound, the IC50 in test [2] was determined as 0.22 nM.

(Values after patent US11459339B2, “Biaryl derivative, preparation method thereof and pharmaceutical application thereof” (Abbisko Therapeutics Co., Ltd., priority 2018, dated 2022).)
